ChEMBL document CHEMBL3627608, “Crystal structures of human RIP2 kinase catalytic domain complexed with ATP-competitive inhibitors: Foundations for understanding inhibitor selectivity” (Bioorg Med Chem, 2015)

What was measured:
[1] = target: T1, Dual specificity tyrosine-phosphorylation-regulated kinase 3 (Homo sapiens) (UniProt O43781); assay: Inhibition of DYRK3 (unknown origin) at 10 uM after 120 mins P33 radiolabeled kinase activity assay
T1 sequence (whole entry): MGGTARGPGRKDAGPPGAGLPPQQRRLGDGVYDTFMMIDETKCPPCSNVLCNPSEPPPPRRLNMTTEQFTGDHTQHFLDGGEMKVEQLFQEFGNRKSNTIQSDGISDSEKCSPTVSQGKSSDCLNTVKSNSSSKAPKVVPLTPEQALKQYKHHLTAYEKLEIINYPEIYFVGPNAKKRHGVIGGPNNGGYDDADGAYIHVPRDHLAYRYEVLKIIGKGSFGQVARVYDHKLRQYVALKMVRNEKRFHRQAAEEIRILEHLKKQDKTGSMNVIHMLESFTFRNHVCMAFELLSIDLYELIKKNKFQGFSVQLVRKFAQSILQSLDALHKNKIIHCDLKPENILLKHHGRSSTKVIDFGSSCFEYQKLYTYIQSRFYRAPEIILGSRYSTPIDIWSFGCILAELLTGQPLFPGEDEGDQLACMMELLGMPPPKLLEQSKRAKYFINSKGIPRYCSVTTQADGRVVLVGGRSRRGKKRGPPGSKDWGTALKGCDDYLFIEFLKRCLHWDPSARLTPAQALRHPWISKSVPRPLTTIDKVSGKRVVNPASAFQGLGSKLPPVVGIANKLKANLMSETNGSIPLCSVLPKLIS

[2] = target: Glycogen synthase kinase-3 alpha (Homo sapiens) (UniProt P49840); assay: Inhibition of GSK3alpha (unknown origin) at 10 uM after 120 mins P33 radiolabeled kinase activity assay
Chain of Glycogen synthase kinase-3 alpha (Homo sapiens) (P49840 2-483 limits assumed): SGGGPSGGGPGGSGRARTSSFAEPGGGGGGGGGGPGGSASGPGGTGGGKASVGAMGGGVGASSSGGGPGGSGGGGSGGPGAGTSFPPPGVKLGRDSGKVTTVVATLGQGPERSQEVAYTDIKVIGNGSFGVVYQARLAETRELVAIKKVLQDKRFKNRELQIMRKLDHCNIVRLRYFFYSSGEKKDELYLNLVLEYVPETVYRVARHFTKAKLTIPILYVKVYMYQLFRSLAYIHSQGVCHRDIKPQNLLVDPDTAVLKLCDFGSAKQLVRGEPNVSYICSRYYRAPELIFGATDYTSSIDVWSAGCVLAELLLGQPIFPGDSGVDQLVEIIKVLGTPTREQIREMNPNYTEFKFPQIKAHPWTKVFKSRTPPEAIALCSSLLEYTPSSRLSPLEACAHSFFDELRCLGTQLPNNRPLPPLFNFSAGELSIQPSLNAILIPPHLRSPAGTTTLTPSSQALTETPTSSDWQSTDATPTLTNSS

[3] = target: ALK tyrosine kinase receptor (Homo sapiens) (UniProt Q9UM73); assay: Inhibition of ALK (unknown origin) at 10 uM after 120 mins P33 radiolabeled kinase activity assay
Chain of ALK tyrosine kinase receptor (Homo sapiens) (Q9UM73 19-1620 limits assumed): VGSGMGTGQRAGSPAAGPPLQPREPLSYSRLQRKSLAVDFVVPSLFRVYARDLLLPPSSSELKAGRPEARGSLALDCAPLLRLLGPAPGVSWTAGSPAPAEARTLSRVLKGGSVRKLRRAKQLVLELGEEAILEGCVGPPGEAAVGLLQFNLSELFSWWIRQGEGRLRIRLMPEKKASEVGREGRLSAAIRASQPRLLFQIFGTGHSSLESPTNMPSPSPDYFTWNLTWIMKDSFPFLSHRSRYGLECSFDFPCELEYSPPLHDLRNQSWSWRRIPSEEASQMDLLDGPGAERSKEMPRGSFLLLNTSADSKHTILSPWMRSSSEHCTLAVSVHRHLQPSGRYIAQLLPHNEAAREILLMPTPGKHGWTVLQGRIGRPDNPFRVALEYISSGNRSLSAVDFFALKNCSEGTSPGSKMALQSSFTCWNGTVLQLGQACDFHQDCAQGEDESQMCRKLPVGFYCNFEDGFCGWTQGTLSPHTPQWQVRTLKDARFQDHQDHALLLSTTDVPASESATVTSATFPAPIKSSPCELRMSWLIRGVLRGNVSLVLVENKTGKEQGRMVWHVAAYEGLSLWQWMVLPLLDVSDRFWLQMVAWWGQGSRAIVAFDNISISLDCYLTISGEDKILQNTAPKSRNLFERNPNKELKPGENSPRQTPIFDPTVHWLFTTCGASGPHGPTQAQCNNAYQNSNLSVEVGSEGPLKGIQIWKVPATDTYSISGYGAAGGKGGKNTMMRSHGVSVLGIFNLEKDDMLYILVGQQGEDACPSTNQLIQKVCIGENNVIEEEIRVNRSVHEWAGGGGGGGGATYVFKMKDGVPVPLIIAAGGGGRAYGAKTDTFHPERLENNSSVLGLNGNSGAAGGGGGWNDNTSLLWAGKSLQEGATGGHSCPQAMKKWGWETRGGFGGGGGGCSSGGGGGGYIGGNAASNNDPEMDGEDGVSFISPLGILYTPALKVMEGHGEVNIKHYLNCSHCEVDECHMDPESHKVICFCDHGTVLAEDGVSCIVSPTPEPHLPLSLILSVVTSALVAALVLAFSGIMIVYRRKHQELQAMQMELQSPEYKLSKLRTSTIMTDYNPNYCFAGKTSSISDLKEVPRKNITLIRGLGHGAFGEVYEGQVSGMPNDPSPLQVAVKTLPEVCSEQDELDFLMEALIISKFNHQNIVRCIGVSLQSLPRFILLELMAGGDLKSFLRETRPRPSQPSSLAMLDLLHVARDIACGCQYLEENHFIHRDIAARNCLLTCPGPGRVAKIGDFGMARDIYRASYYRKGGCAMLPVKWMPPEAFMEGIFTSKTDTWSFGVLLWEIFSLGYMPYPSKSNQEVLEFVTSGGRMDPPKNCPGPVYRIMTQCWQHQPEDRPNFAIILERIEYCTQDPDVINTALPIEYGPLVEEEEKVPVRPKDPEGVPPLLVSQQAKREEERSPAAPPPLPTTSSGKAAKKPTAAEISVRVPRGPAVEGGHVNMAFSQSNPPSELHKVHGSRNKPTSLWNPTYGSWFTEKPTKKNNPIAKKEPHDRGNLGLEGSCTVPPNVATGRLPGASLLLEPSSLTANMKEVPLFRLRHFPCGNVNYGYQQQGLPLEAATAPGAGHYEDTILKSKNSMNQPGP

[4] = target: T2, Serine/threonine-protein kinase Chk1 (Homo sapiens) (UniProt O14757); assay: Inhibition of CHK1 (unknown origin) at 10 uM after 120 mins P33 radiolabeled kinase activity assay
T2 sequence (whole entry): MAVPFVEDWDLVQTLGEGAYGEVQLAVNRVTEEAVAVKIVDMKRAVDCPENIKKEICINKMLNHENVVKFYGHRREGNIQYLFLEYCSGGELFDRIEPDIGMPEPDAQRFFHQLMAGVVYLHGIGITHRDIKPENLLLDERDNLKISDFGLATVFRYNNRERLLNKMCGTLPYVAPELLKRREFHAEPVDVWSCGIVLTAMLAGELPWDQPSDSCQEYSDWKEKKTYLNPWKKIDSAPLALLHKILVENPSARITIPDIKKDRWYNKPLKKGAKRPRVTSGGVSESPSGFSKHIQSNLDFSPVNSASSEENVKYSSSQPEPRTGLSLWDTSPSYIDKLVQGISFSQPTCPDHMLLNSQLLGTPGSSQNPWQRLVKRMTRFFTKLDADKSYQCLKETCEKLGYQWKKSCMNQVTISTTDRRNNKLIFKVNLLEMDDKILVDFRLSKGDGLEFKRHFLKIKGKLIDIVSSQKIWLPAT

[5] = target: Casein kinase I isoform epsilon (Homo sapiens) (UniProt P49674); assay: Inhibition of CK1epsilon (unknown origin) at 10 uM after 120 mins P33 radiolabeled kinase activity assay
Chain of Casein kinase I isoform epsilon (Homo sapiens) (P49674 whole entry, looked up, canonical isoform): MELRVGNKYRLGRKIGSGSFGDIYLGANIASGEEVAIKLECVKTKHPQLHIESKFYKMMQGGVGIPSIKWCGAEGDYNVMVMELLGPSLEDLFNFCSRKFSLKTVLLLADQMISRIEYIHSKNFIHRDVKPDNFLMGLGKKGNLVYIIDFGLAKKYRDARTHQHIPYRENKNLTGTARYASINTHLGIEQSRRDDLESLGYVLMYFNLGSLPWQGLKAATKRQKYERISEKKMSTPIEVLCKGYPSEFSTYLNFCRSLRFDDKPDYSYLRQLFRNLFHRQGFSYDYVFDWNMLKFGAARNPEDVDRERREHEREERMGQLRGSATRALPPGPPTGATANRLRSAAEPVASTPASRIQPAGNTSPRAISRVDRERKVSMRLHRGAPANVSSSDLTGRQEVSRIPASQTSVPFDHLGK

[6] = target: T3, Rhodopsin kinase GRK1 (Homo sapiens) (UniProt Q15835); assay: Inhibition of GRK1 (unknown origin) at 10 uM after 120 mins P33 radiolabeled kinase activity assay
T3 sequence (whole entry): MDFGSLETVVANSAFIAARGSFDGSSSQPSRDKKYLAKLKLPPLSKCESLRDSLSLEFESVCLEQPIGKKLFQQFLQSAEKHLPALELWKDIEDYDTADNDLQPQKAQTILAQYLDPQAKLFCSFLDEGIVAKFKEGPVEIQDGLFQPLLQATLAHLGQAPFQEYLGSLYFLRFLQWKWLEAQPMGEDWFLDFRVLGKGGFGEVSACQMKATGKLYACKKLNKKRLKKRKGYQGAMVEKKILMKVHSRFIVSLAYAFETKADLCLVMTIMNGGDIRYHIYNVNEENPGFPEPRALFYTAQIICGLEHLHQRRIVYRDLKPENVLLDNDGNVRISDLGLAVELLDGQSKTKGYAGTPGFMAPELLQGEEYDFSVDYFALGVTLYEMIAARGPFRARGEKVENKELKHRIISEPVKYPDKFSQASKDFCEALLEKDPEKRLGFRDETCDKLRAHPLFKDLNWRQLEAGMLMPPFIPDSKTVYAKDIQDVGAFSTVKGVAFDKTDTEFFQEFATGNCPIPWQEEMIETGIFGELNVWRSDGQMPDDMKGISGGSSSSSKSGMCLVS

[7] = target: cAMP-dependent protein kinase (PKA) (Homo sapiens) (UniProt P22694+P17612+P22612); assay: Inhibition of PKA (unknown origin) at 10 uM after 120 mins P33 radiolabeled kinase activity assay; format: protein assay
[8] = target: T4, Ephrin type-A receptor 1 (Homo sapiens) (UniProt P21709); assay: Inhibition of EPHA1 (unknown origin) at 10 uM after 120 mins P33 radiolabeled kinase activity assay
T4 sequence (whole entry): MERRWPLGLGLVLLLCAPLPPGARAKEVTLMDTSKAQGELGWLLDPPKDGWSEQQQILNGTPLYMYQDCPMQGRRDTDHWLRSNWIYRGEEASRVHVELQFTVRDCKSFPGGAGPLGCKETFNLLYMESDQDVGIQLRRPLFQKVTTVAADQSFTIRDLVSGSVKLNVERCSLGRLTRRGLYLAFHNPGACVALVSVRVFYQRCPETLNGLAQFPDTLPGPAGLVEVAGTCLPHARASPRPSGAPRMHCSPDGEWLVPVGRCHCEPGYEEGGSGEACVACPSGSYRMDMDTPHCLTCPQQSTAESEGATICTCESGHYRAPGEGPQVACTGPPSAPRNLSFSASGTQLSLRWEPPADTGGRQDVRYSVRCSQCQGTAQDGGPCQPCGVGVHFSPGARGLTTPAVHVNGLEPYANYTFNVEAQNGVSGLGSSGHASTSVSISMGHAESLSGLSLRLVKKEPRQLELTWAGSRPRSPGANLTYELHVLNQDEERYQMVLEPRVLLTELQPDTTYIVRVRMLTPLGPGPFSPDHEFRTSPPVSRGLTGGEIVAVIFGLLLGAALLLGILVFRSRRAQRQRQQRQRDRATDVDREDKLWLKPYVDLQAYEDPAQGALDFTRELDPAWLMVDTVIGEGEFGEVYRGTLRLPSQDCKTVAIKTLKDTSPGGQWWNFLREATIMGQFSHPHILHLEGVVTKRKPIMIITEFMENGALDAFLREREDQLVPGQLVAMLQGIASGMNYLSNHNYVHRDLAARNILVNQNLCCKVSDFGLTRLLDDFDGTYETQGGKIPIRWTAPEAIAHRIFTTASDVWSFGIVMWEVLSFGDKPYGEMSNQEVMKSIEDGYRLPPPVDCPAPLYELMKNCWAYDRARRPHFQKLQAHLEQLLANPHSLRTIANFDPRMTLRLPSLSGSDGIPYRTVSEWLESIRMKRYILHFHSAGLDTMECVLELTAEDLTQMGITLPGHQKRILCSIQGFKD

Row | inhibition [1] [%] | inhibition [2] [%] | inhibition [3] [%] | inhibition [4] [%] | inhibition [5] [%] | inhibition [6] [%] | inhibition [7] [%] | inhibition [8] [%] | SMILES
1 | 10.3 | 98.9 | 6.1 | 10.9 | 36.8 | 6.04 | 6.72 | 91.4 | CS(=O)(=O)c1cccc(Nc2nccc(-c3sc(N4CCOCC4)nc3-c3cccc(NS(=O)(=O)c4c(F)cccc4F)c3)n2)c1
2 | 8.42 | 5.43 | 0.02 | 15.3 | 44.4 | 11.4 | 7.76 | 16.6 | COCCNC(=O)c1ccc2c(c1)nc(-c1cnc(-c3ccc(Cl)cc3)[nH]1)n2CCOC
3 | 71.4 | 37.8 | 17.4 | -0.09 | 5.92 | 7.39 | 80.5 | 86.2 | CC(C)(C)c1cc(NC(=O)Nc2ccc(Oc3ccncc3)cc2)no1
